# Measurements taken from US10308682B2, “Inhibition of tumor growth with aggregates of small molecules” (BRANDEIS UNIVERSITY, priority 2013, dated 2019).
# Key:
# [1] = tested on: T98G; assay: Cell viability assay (MTT), T98G; assay type: cell-based
# Procedure: (§1) Cells in exponential growth phase were seeded in a 96 well plate at a concentration of 50,000 cell/well. The cells were allowed to attach to the wells for 24 h at 37° C., 5% CO2, then the culture medium was removed and 100 μL new culture medium containing 1 at gradient concentrations was placed into each well. After culturing at 37° C., 5% CO2 for desired time, each well was added by 10 μL of 5 mg/mL MTT 43-(4,5-Dimethylthiazol-2-yl)-2,5-diphenyltetrazolium bromide), and the plated cells were incubate at dark for 4 h. 100 μL 10% SDS with 0.01 M HCl was added to each well to stop the reduction reaction and to dissolve the purple. After incubation of the cells at 37° C. for overnight, the viability is measured. Data represent the mean±standard deviation of three independent experiments.
# (§2) The estimation of the threshold concentration of aggregation (320-340 μM) for 1 allows us to examine the cytotoxicity of 1 in monomer and molecular aggregate forms. We first tested the cytotoxicity of 1 towards HeLa cells, the most widely studied cancer cell line, below and above the threshold concentration.
# [2] = tested on: MES-SA; assay: Cell viability assay (MTT), MES-SA; assay type: cell-based
# Procedure: as §1, §2
# [3] = tested on: HeLa tumors; assay: Xenograft mouse model, HeLa tumors, peritumoral injection; assay type: in vivo, Nu/nu mice
# Procedure: FIG. 2 depicts the cytotoxicity of 1. Cell viability assay (MTT) of HeLa cells after 24 and 48 h of treatment with (a) as prepared or (b) filtered medium containing different concentrations of 1. Also shown are MTT assays of 1 towards (c) MCF 7, (d) HepG2, (e) T98G and (f) PC12 cell lines. Data are presented as mean±SD of three independent experiments. (g) Tumor progression curves of mice bearing HeLa tumors. 0.1 mL of 1 at 5 mM or 0.5 mM in PBS buffers or just PBS buffer as control (six doses, starting day 1) was subcutaneous peritumorally injected every three days. Data are presented as mean±SD of relative tumor volume (n=4 for treatment groups and n=3 for control group). *p<0.05, by Student's t test. (at day 19, 5 mM=bottom data point; 0.5 mM=middle data point; control=top data point). (h) A representative image to show the mice, started with similar initial tumor volume (V0), from each group on 19th day of treatment. White arrows point at tumor. See also FIG. 9, FIG. 10, and FIG. 11.
# Nu/nu mice were injected with HeLa cells (5×10^6) subcutaneously for tumor development. Treatment was started when average tumor size reached 30 mm^3. Mice were divided into three groups. One group (n=3) received 0.1 mL PBS buffer as control, the other two groups (n=4) received 0.1 mL of 1 at 5 mM or 0.5 mM. Six doses were given every three days starting day 1. Progression of tumor was monitored until 19th day of the treatment.
# To further assess the inhibitory effect of molecular aggregates of 1 to cancer cells, we inoculated HeLa cells on nude mice and treated the xenograft tumors with molecular aggregates of 1 by peritumoral injection.
# [4] = molecular target: T1, actin (Homo sapiens, UniProt P60709); assay: Hydrogel based protein pull-down assay, actin; assay type: binding; settings: hydrogel 10 mM, HeLa cell lysate, Western blot
# T1 construct: snap freeze and thaw for 3 cycles to lyse the cells; endogenous in cells; host or cells: HeLa cell lysate
# Procedure: 4×10^7 of HeLa cells were scrapped from petri dish and washed with PBS buffer for 3 times then centrifuged at 300 g for 5 minutes. The collected cell pellet was mixed with phosphate buffer (100 mM) then snap freeze and thaw for 3 cycles to lyse the cells. The cell lysate was clarified by centrifugation at 12,000 g for 20 min at 4° C. to remove the whole cells, nuclei and large mitochondria. 50 μL of the supernatant lysate was gently mixed with 30 μL hydrogel of 1 (10 mM in PBS buffer, pH 7.6) on rotator at RT for 30 min. The hydrogel was collected by centrifugation (12,000 g, 5 min, 4° C.) and the supernatant was collected and placed on ice before analysis. The hydrogel was washed three times by gently mixing with 50 μL of the washing buffer (50 mM phosphate buffer pH 7.6 supplemented with 150 mM NaCl) on rotator at RT for 10 min followed by separation on centrifuge (12,000 g, 5 min, 4° C.). Supernatants were collected and placed on ice before analysis. Finally, the remaining hydrogel was dissolved using 1:1 washing buffer and 5× Laemeli buffer. All other samples were mixed with 5× Laemeli buffer (final concentration 2×) before SDS-PAGE.
# That 1 enters the cells to affect cell cycle, cell migration, and eventually cell viability implies the interactions between the aggregates of 1 and certain intracellular proteins. […]
# [5] = tested on: HeLa cells; assay: Tubulin staining (tubulin tracker), HeLa cells; assay type: cell-based; settings: 24 h
# Procedure: Cells in exponential growth phase were seeded in glass bottomed culture chamber at 10,000 cell/mL. The cells were allowed for attachment for 24 h at 37° C., 5% CO2. The culture medium was removed, and new culture medium containing 1 at 0 or 400 μM was added. After 24 h of incubation, cells were washed with PBS buffer for 3 times and stained by Tubulin Tracker™ Green at 100 nM and DAPI 300 nM in PBS for 30 min at 37° C. in dark. The sample was rinsed three times in PBS, and the cells were kept in PBS for imaging.
# To confirm that the aggregates of 1 clusters multiple tubulin heterodimers and inhibit the formation of microtubules inside live cells, we used a tubulin tracker that selectively binds to tubulin polymers (microtubules) over tubulin monomers to stain the HeLa cells treated with 1 at different concentrations for 24 h. […] As the tubulin tracker only stains microtubule (i.e., polymerized tubulin heterodimers), the fluorescence from the cluster indicates the tubulin heterodimers in the clusters are short microtubules. […] The loss of microtubules induced by molecular aggregates of 1 explains the origins of the delay of cell migration and the arrest of cell-cycle in HeLa cells incubated with 400 or 500 μM of 1.
# [6] = tested on: PC12 cells; assay: Tubulin staining (tubulin tracker), PC12 cells; assay type: cell-based; settings: 400 μM, 24 h
smiles,measurement,setting,value
O=C(Cc1ccc2ccccc2c1)N[C@@H](Cc1ccccc1)C(=O)N[C@@H](Cc1ccccc1)C(=O)O [Compound 1],cytotoxicity towards T98G,[1],decreases of cell viabilities only observed at 400 and 500 μM
same,cytotoxicity towards MES-SA,[2],decreases of cell viabilities only observed at 400 and 500 μM
same,effect on tumor growth,"[3]; 0.5 mM (~1 mg/kg), 0.1 mL peritumoral, every three days",little effect on tumor growth
same,surface of the skin covering and around the tumor,[3]; 5 mM,intact (with no ulceration or sclerosis)
same,effect on tumor progression,"[3]; 5 mM (~10 mg/kg), 0.1 mL peritumoral, every three days",starts to inhibit tumor progression after 10th day of treatment
same,tumor size versus 0.5 mM group and control group,"[3]; 5 mM, 19th day of treatment",significantly smaller
same,body weight change,[3]; 0.1 mL of 5 mM or 0.5 mM,no significant weight loss or weight gain
same,binding of actin to the aggregates of 1,[4],low binding affinity
same,microtubule morphology,[5]; 200 μM,essentially the same morphology and distribution as those in the control cells
same,microtubule morphology,[5]; 300 μM,a small amount of the microtubules appear to be shorter than those in the control cells
same,microtubule morphology,[5]; 400 μM,large clusters surrounded by scattered microtubule fibrils
same,microtubule morphology,"[5]; 400 μM, medium filtered by 0.22 μm PVDF membrane","(almost) normal microtubule networks, with only few clusters"
same,microtubule morphology,[6],intact microtubule networks
